Active and inactive are the calls of the source. The rule behind the calls is not given here.
Columns and labels:
[1] = target: T1, Matrix protein VP40 (Lake Victoria marburgvirus (strain Ravn-87) (MARV) (Marburg virus (strainKenya/Ravn/1987))) (UniProt Q1PDC8); assay: Inhibition of Marburg virus VP40 PPxY L-domain motif expressed in HEK293T cells assessed as reduction in VLP budding at 0.03 uM relative to control; format: cell-based; settings: HEK-293T
T1 sequence (whole entry): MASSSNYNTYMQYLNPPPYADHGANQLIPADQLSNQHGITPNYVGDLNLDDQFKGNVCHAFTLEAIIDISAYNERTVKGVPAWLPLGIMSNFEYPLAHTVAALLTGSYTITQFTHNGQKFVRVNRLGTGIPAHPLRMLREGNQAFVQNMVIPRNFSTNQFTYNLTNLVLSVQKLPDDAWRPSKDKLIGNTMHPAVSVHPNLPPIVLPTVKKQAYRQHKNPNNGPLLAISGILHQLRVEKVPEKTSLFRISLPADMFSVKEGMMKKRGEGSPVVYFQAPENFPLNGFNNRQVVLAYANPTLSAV

[2] = target: T1, Matrix protein VP40 (Lake Victoria marburgvirus (strain Ravn-87) (MARV) (Marburg virus (strainKenya/Ravn/1987))); assay: Inhibition of Marburg virus VP40 PPxY L-domain motif expressed in HEK293T cells assessed as reduction in VLP budding at 1 uM relative to control; format: cell-based; settings: HEK-293T
[3] = target: T1, Matrix protein VP40 (Lake Victoria marburgvirus (strain Ravn-87) (MARV) (Marburg virus (strainKenya/Ravn/1987))); assay: Inhibition of Marburg virus VP40 PPxY L-domain motif expressed in HEK293T cells assessed as reduction in VLP budding at 0.1 uM relative to control; format: cell-based; settings: HEK-293T
[4] = target: T1, Matrix protein VP40 (Lake Victoria marburgvirus (strain Ravn-87) (MARV) (Marburg virus (strainKenya/Ravn/1987))); assay: Inhibition of Marburg virus VP40 PPxY L-domain motif expressed in HEK293T cells assessed as reduction in VLP budding at 0.3 uM relative to control; format: cell-based; settings: HEK-293T
[5] = tested on: Liver microsome; assay: Half life in human liver microsomes; format: ADME
[6] = Half life in mouse liver microsomes; format: ADME
[7] = target: T1, Matrix protein VP40 (Lake Victoria marburgvirus (strain Ravn-87) (MARV) (Marburg virus (strainKenya/Ravn/1987))); assay: Inhibition of Marburg virus VP40 PPxY L-domain motif expressed in HEK293T cells assessed as reduction in VLP budding at 1 uM after 24 hrs by Western blot analysis relative to control; format: cell-based; settings: HEK-293T
[8] = tested on: Liver microsome; assay: Intrinsic clearance in human liver microsomes assessed per mg of protein; format: ADME
[9] = target: Cytochrome P450 3A4 (Homo sapiens, UniProt P08684); assay: Inhibition of CYP3A4 (unknown origin) using midazolam as substrate; format: ADME
Sequence of Cytochrome P450 3A4 (P08684 whole entry): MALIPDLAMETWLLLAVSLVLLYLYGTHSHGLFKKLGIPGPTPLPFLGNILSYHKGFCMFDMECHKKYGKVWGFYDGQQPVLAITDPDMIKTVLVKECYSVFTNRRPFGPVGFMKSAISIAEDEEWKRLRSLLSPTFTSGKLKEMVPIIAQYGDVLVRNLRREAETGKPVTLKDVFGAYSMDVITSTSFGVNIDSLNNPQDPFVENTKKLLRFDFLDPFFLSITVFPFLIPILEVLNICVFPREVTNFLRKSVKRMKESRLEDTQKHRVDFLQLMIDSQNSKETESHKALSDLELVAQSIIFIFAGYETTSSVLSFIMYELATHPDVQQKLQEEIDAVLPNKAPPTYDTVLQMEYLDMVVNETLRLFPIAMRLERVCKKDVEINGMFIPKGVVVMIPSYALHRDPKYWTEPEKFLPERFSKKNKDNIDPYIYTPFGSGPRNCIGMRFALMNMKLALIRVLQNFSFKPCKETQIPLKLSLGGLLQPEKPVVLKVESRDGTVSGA

[10] = target: T1, Matrix protein VP40 (Lake Victoria marburgvirus (strain Ravn-87) (MARV) (Marburg virus (strainKenya/Ravn/1987))); assay: Inhibition of Marburg virus VP40 PPxY L-domain motif expressed in HEK293T cells assessed as reduction in VLP budding at 10 uM relative to control; format: cell-based; settings: HEK-293T

Structure (SMILES) | inhibition [2] | inhibition [3] | further results
CCc1ccc(C)nc1NC(=O)NC(=O)CSc1nc2ccccc2nc1C |  |  | inhibition [1]: 48%
Cc1nc2ccccc2nc1SCC(=O)N(C)C(=O)Nc1ccccc1F | inactive |  | 
Cc1c(F)cccc1NC(=O)NC(=O)CSc1nc2ccccc2nc1C(F)(F)F |  | inactive | 
Cc1nc2ccccc2nc1SCC(=O)NC(=O)Nc1cccc(C#N)c1 | 72% |  | 
CCc1nc2ccccc2nc1SCC(=O)NC(=O)Nc1ccccc1Cl |  | inactive | 
Cc1cccc(NC(=O)NC(=O)CSc2nc3ccccc3nc2C)c1 | 100% | inactive | inhibition [1]: inactive; inhibition [4]: 71%
Cc1nc2ccccc2nc1SCC(=O)NC(=O)Nc1ccccc1C#N | 87% |  | 
Cc1ccc(NC(=O)NC(=O)CSc2nc3ccccc3nc2C)nc1 |  | 96% | 
Cc1nc2ccccc2nc1SCC(=O)NC(=O)Nc1cc(Cl)ccc1Cl |  |  | inhibition [1]: 37%
Cc1nc2ccccc2nc1SCC(=O)NC(=O)Nc1ccccc1F | 100% | 98% | inhibition [1]: inactive; inhibition [4]: 100%
O=C(CSc1nc2ccccc2nc1Cc1ccccc1)NC(=O)Nc1ccc(F)cc1 | inactive |  | 
Cc1nc2ccccc2nc1SCC(=O)NC(=O)Nc1cccc(F)c1 | 41% |  | 
CCc1nc2ccccc2nc1SCC(=O)NC(=O)Nc1cccc(F)c1C | 67% | inactive | t1/2 [5]: 31.3 min; t1/2 [6]: 54.8 min; inhibition [4]: inactive
Cc1nc2ccccc2nc1SCC(=O)NC(=O)Nc1ccccc1 | 88% |  | t1/2 [5]: 43.9 min; fold change (FC) [7]: 100; Intrinsic clearance [8]: 1.66 mL/min
Cc1ncccc1NC(=O)NC(=O)CSc1nc2ccccc2nc1C |  | 41% | 
O=C(CSc1nc2ccccc2nc1C(F)(F)F)NC(=O)Nc1ccccc1Cl | inactive | inactive | t1/2 [5]: 71.7 min; Intrinsic clearance [8]: 0.77 mL/min; t1/2 [6]: 49.9 min; IC50 [9]: > 33 µM; inhibition [4]: inactive
Cc1nc2ccccc2nc1SCC(=O)NC(=O)NC1CC1 | inactive | inactive | inhibition [10]: 60%
Cc1cccnc1NC(=O)NC(=O)CSc1nc2ccccc2nc1C |  | 45% | 
Cc1cccc(NC(=O)NC(=O)CSc2nc3ccccc3nc2C)c1C |  |  | inhibition [1]: 41%; inhibition [4]: 98%
COc1ccc(NC(=O)NC(=O)CSc2nc3ccccc3nc2C)cc1 | 100% | 99% | inhibition [1]: 25%
Cc1ccncc1NC(=O)NC(=O)CSc1nc2ccccc2nc1C |  | 85% | 
Cc1ccccc1NC(=O)NC(=O)COc1nc2ccccc2nc1C | 100% | 58% | inhibition [4]: 100%
Cc1nc2ccccc2nc1SCC(=O)NC(=O)Nc1cc[nH]n1 | inactive |  | 
Cc1nc2ccccc2nc1SCC(=O)NC(=O)Nc1ccccn1 | 80% | inactive | 
Cc1nc2ccccc2nc1SCC(=O)NC(=O)Nc1c(C)nn(C)c1C | 64% |  | 

From ChEMBL document CHEMBL3826909, “Quinoxaline-based inhibitors of Ebola and Marburg VP40 egress” (Bioorg Med Chem Lett, 2016)
